# Bridges are numbered along the chain shown (N, C = ends). Where no end group is shown, it is not given here. [ ]: non-standard residue; d: D form. GABA = NCCCC(=O)O
# B1: nRGD polypeptide CCRGDK(NAA)GPDC, coupled to the surface of doxorubicin liposomes (nRGD-Lipo-Dox) (peptide)
# peptide: CCRGDKGPDC
# modifications: disulfide 2-10; not fully specified (residue 6); printed as CCRGDK(NAA)GPDC; also: coupled to Mal-PEG2000-DSPE liposome via cysteine
# Assays:
# [1] = system: CoCl2-treated 4T1 and M2 type macrophages, HUVEC, untreated 4T1 cells; test: Cell uptake experiments; type: cell-based; conditions: HUVEC with low legumain expression and untreated 4T1 cells
# Excerpt: (§1) The targeting ability of nRGD was studied through in vitro and in vivo experiments by the inventors.
# [2] = system: tumour vessels and tumour-associated macrophages (TAMs); test: In vivo targeting and tumour microenvironment study in 4T1 tumours (immunofluorescence, immunohistochemistry, RT-PCR, ELISA); design: species or system Balb/c mice
# Description: (§3) Female Balb/c mice were inoculated with 5×10^5 4 T1 cells and randomly divided into 7 groups: saline group (NS), Dox group, PEG-Lipo-Dox group, iRGD-Lipo-Dox group, nRGD-Lipo-Dox group, Dox and nRGD coadministration group (Dox+nRGD), PEGylated liposome and nRGD coadministration group (PEG-Lipo-Dox+nRGD). The mice were injected with 5 mg/kg Dox equivalents of drugs or various formulations on day 8 and day 12. The single dose of the coadministration group included two shoots; one shoot was an equivalent drug or formulation of 5 mg/kg Dox, while the other shoot was 4.8 mg/kg nRGD. The volume and body weight of the mice were measured every two days. Some mice were sacrificed for mechanism and toxicity study on day 20. The average tumour growth inhibition (TGI) was calculated after tumour weighing: TGI=(1−(mean tumour weight of treatment group/(average tumour weight of control group))×100%. The antitumour effect and mechanism were studied by HE, immunohistochemistry, RT-PCR, immunofluorescence and ELISA. Plasma samples were collected for ELISA detection. Tissue samples were evaluated for toxicity by HE staining. The remaining mice were studied for survival time.
# 4T1 tumours [3] = test: Pharmacodynamics of paclitaxel and its albumin nanoparticles with nRGD, 4T1 tumour model; type: in vivo
# Description: The mice were injected with 10 mg/kg PTX equivalents of drugs or various formulations on day 8, day 12 and day 16.
# 4T1 tumours [4] = test: Pharmacological effects of lycobetaine and its nanostructured lipid carriers with nRGD, 4T1 tumour model; type: in vivo
# Description: Normal saline group (N. S), IBT group, lycobetaine nanostructured lipid carriers group (IBT-NLC), lycobetaine and nRGD coadministration group (IBT+nRGD), and lycobetaine nanostructured lipid carriers and nRGD coadministration group (IBT-NLC+nRGD). The mice were injected with 12 mg/kg IBT equivalents of drugs or various formulations on day 8, day 9 and day 10.
# 4T1 tumours [5] = test: Pharmacological effects of docetaxel and its micells with nRGD, 4T1 tumour model; type: in vivo
# Description: Female Balb/c mice were inoculated with 5×10^5 4T1 cells and randomly divided into 5 groups: normal saline group (N. S), TXT group, docetaxel micells group (TXT-micells), docetaxel and nRGD coadministration group (TXT+nRGD), and docetaxel micells and nRGD coadministration group (TXT-micells+nRGD). The mice were injected with 15 mg/kg TXT equivalents of drugs or various formulations on day 8, day 10 and day 12.
# glioma = test: Glioma model survival; type: in vivo, mice; conditions: lycobetaine and octreotide liposomes, peptide as a mixture or on the liposome surface
# Excerpt: Mice having glioma were randomly divided into 9 groups, 20 mice each: normal saline group (N.S), teniposide group, free lycobetaine and octreotide group (free IBT & OCT), lycobetaine and octreotide PEGylated liposomes group (PEG-Liposome), liposomes and iRGD coadministration group (PEG-Liposome+iRGD), liposomes and nRGD coadministration group (PEG-Liposome+nRGD), iRGD modified lycobetaine and octreotide PEGylated liposomes (iRGD-Liposome), nRGD modified lycobetaine and octreotide PEGylated liposomes (nRGD-Liposome), liposomes and nRGD coadministration group (blank). The mice were injected with 10 mg/kg IBT and […] OCT equivalents of drugs or various formulations on day 5, day 7, day 9, day 11 and day 12. As positive control group, mice were injected with 10 mg/kg teniposide on day 5, day 7, day 9, day 11 and day 12. […] The survival of the mice was recorded daily and the survival curve was plotted.
# 4T1 tumours [6] = test: Screening of the administration manner of nRGD with doxorubicin, 4T1 model; type: in vivo, Balb/c mice; conditions: nRGD in combination with, prior to or after doxorubicin
# Description: Female Balb/c mice were inoculated with 5×10^5 4 T1 cells and randomly divided into 3 groups. nRGD was administered in combination with doxorubicin, nRGD was administered prior to doxorubicin or after doxorubicin.
# 4T1 tumours [7] = test: Screening of the working concentration of nRGD with doxorubicin, 4T1 model; type: in vivo, Balb/c mice; conditions: doxorubicin 5 mg/kg; nRGD 1, 2, 4, 8, 10 mg/kg
# Description: The dose of doxorubicin was 5 mg/kg, while the nRGD concentration was 1, 2, 4, 8, 10 mg/kg, respectively.
# [8] = mouse, in vivo
# 4T1 tumours [9] = test: Pharmacodynamics of doxorubicin and its liposomes in 4T1 tumour model; type: in vivo, Balb/c mice; conditions: day 20
# Description: as §3
# Raw 264.7 cells = test: Median lethal dose (IC50) against Raw 264.7 cells at 24 h; type: cell-based
# Excerpt: as §1
# HUVEC = test: Median lethal dose (IC50) against HUVEC at 24 h; type: cell-based; conditions: n = 3
# Excerpt: as §1
# 4T1 cells = test: Median lethal dose (IC50) against 4T1 cells at 24 h; type: cell-based
# Excerpt: as §1
# 4T1 tumours [10] = test: Evaluation of peptide-bond linked RGD-AAN peptides with doxorubicin, 4T1 model; type: in vivo, Balb/c mice; conditions: doxorubicin 5 mg/kg with peptide
# Description: (§2) The dose of doxorubicin was 5 mg/kg for all groups. Two groups were administrated with above-mentioned peptides, respectively.
# 4T1 tumours [11] = test: Evaluation of 4Abu linked RGD-AAN peptides with doxorubicin, 4T1 model; type: in vivo, Balb/c mice; conditions: doxorubicin 5 mg/kg with peptide
# Description: as §2
# legumain = biological target: T1, legumain (UniProt O89017 18-325, limits assumed); test: cell-based or functional assay
# T1 sequence (looked up): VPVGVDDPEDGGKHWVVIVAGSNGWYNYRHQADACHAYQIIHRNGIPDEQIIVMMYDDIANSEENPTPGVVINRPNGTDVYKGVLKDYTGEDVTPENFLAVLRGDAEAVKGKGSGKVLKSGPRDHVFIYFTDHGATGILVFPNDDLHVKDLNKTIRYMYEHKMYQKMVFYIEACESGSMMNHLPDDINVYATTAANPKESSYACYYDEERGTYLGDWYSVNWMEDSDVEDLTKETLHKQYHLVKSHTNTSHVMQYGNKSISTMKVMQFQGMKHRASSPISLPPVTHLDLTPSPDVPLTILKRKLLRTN
molecule,measurement,setting,value
CCRGDK(NAA)GPDC (CCRGDKGPDC) [nRGD],cell uptake,[1],significantly reduced compared to iRGD
same,accumulation of Dox in the tumour site,[2]; tumour sections,increased the accumulation of Dox in the tumour site
same,anti-tumour efficacy,"4T1 tumours [3]; 10 mg/kg PTX equivalents day 8, 12, 16 with 4.8 mg/kg nRGD",increased the anti-tumour efficacy of PTX and PTX-BSA
same,body weight and toxicity,"4T1 tumours [3]; mouse, in vivo",did not reduce the body weight of the mice or increase the toxicity
same,anti-tumour efficacy,"4T1 tumours [4]; 12 mg/kg IBT equivalents day 8, 9, 10 with 4.8 mg/kg nRGD",increased the anti-tumour efficacy of PTX and PTX-BSA
same,body weight and toxicity,"4T1 tumours [4]; mouse, in vivo",did not reduce the body weight of the mice or increase the toxicity
same,anti-tumour efficacy,"4T1 tumours [5]; 15 mg/kg TXT equivalents day 8, 10, 12 with 4.8 mg/kg nRGD",increased the anti-tumour efficacy of TXT and TXT-micells
same,body weight and toxicity,"4T1 tumours [5]; mouse, in vivo",did not reduce the body weight of the mice or increase the toxicity
same,life period,glioma,longer life period than the iRGD group
same,anti-tumour effects of different manners of administration,4T1 tumours [6],no significant differences
same,Dox antitumour efficacy versus nRGD concentration,4T1 tumours [7],positively correlated with Dox antitumour efficacy
same,weight of mice,[8],did not reduce the weight of mice
"COc1cccc2c1C(=O)c1c(O)c3c(c(O)c1C2=O)C[C@@](O)(C(=O)CO)C[C@@H]3O[C@H]1C[C@H](N)[C@H](O)[C@H](C)O1 [Dox, doxorubicin]",tumour weight,"4T1 tumours [9]; 5 mg/kg Dox equivalents on day 8 and day 12, coadministration with 4.8 mg/kg nRGD",1592.0 ± 98.0 mg
same,tumour growth inhibition rate (TGI),4T1 tumours [9]; from tumour weight versus control group,26.3%
same,"IC50 Dox, Raw264.7 IL-4","Raw 264.7 cells; n = 3, IL-4 stimulated",0.36 ± 0.07 µg/mL
same,"IC50 Dox, Raw264.7 LPS","Raw 264.7 cells; n = 3, LPS stimulated",0.81 ± 0.22 µg/mL
same,"IC50 Dox, Raw264.7 Control","Raw 264.7 cells; n = 3, untreated cells",0.41 ± 0.08 µg/mL
same,"IC50 Dox, HUVEC",HUVEC,18.12 ± 6.13 µg/mL
same,"IC50 Dox, 4T1 CoCl2","4T1 cells; n = 3, CoCl2 stimulated",16.54 ± 2.57 µg/mL
same,"IC50 Dox, 4T1 control","4T1 cells; n = 3, untreated cells",26.56 ± 1.96 µg/mL
same,number of regulatory T cells and MDSCs at the tumour sites,"[2]; mouse, in vivo",increased
CRGDNAA (not fully specified (residue 4)),efficacy of doxorubicin,4T1 tumours [10],can improve the efficacy of doxorubicin
CRGD-4Abu-NAA (CRGD[GABA]NAA),efficacy of doxorubicin,4T1 tumours [11],can improve the efficacy of doxorubicin
c(RGDfK)-4Abu-AAN (cyclo(RGD[dF]K[GABA]AAN); not fully specified),efficacy of doxorubicin,4T1 tumours [11],can improve the efficacy of doxorubicin
c(RGDfK)AAN (cyclo(RGD[dF]KAAN); also: attachment point of AAN on cyclic RGDfK not given here),efficacy of doxorubicin,4T1 tumours [10],can improve the efficacy of doxorubicin
B1,"Median lethal dose (IC50) of Dox, 4T1 cells stimulated with CoCl2, 24 h",legumain,37.9 µg/mL
same,"Median lethal dose (IC50) of Dox, Raw264.7 cells stimulated with IL-4, 24 h",legumain,23.5 µg/mL
